≈ marks a conversion by molar mass, not a printed value. Calls of active or inactive are those of the source. The rule behind the calls is not given here.
Experiments:
Staphylococcus aureus [1] = test: Antibacterial activity against Staphylococcus aureus KCTC 1621 assessed as growth inhibition after 18 to 20 hrs by broth microdilution method in presence of NaCl; assay type: functional
Escherichia coli [2] = test: Antibacterial activity against Escherichia coli KCTC 1682 assessed as growth inhibition at 50 ug/ml after 18 to 20 hrs by broth microdilution method in presence of trypsin; assay type: functional, organism-based
Staphylococcus aureus [3] = test: Antibacterial activity against methicillin-resistant Staphylococcus aureus CCARM 3089 assessed as growth inhibition after 18 to 20 hrs by broth microdilution method; assay type: functional
Salmonella typhimurium [4] = test: Antibacterial activity against Salmonella typhimurium KCTC 1926 assessed as growth inhibition after 18 to 20 hrs by broth microdilution method in presence of NaCl; assay type: functional, Salmonella enterica subsp. enterica serovar Typhimurium; conditions: Salmonella enterica
Bacillus subtilis [5] = test: Antibacterial activity against Bacillus subtilis KCTC 3068 assessed as growth inhibition after 18 to 20 hrs by broth microdilution method; assay type: functional
[6] = Hemolytic activity in human RBC assessed as hemoglobin release after 1 hr; assay type: ADME, cell-based, Erythrocyte; conditions: red blood cells (RBC)
Escherichia coli [7] = test: Antibacterial activity against Escherichia coli KCTC 1682 assessed as growth inhibition after 18 to 20 hrs by broth microdilution method; assay type: functional
[8] = system: Staphylococcus epidermidis; test: Antibacterial activity against Staphylococcus epidermidis KCTC 1917 assessed as growth inhibition after 18 to 20 hrs by broth microdilution method in presence of NaCl; assay type: functional
[9] = system: Staphylococcus epidermidis; test: Antibacterial activity against Staphylococcus epidermidis KCTC 1917 assessed as growth inhibition after 18 to 20 hrs by broth microdilution method; assay type: functional
Bacillus subtilis [10] = test: Antibacterial activity against Bacillus subtilis KCTC 3068 assessed as growth inhibition after 18 to 20 hrs by broth microdilution method in presence of NaCl; assay type: functional
Salmonella typhimurium [11] = test: Antibacterial activity against Salmonella typhimurium KCTC 1926 assessed as growth inhibition after 18 to 20 hrs by broth microdilution method; assay type: functional, Salmonella enterica subsp. enterica serovar Typhimurium; conditions: Salmonella enterica
Escherichia coli [12] = test: Antibacterial activity against Escherichia coli KCTC 1682 assessed as growth inhibition after 18 to 20 hrs by broth microdilution method in presence of NaCl; assay type: functional
Staphylococcus aureus [13] = test: Antibacterial activity against Staphylococcus aureus KCTC 1621 assessed as growth inhibition after 18 to 20 hrs by broth microdilution method; assay type: functional
Staphylococcus aureus [14] = test: Antibacterial activity against methicillin-resistant Staphylococcus aureus CCARM 3090 assessed as growth inhibition after 18 to 20 hrs by broth microdilution method; assay type: functional
Staphylococcus aureus [15] = test: Antibacterial activity against Staphylococcus aureus KCTC 1621 assessed as growth inhibition at 50 ug/ml after 18 to 20 hrs by broth microdilution method in presence of trypsin; assay type: functional, organism-based
Pseudomonas aeruginosa [16] = test: Antibacterial activity against Pseudomonas aeruginosa KCTC 1637 assessed as growth inhibition after 18 to 20 hrs by broth microdilution method in presence of NaCl; assay type: functional
Pseudomonas aeruginosa [17] = test: Antibacterial activity against Pseudomonas aeruginosa KCTC 1637 assessed as growth inhibition after 18 to 20 hrs by broth microdilution method; assay type: functional
Staphylococcus aureus [18] = test: Antibacterial activity against methicillin-resistant Staphylococcus aureus CCARM 3095 assessed as growth inhibition after 18 to 20 hrs by broth microdilution method; assay type: functional
Staphylococcus aureus [19] = test: Antibacterial activity against Staphylococcus aureus KCTC 1621 assessed as disruption of cellular structure at 3 x MIC after 1 hr by transmission electron microscopic analysis; assay type: functional, organism-based
Escherichia coli [20] = test: Antibacterial activity against Escherichia coli KCTC 1682 assessed as disruption of cellular structure at 3 x MIC after 1 hr by transmission electron microscopic analysis; assay type: functional, organism-based

Structure (SMILES)	MIC (Staphylococcus aureus [1]) [µg/mL]	growth inhibition (GI) (Escherichia coli [2])	MIC (Staphylococcus aureus [3]) [µg/mL]	MIC (Salmonella typhimurium [4]) [µg/mL]	MIC (Bacillus subtilis [5]) [µg/mL]	HC50 at 1 h [6] [µg/mL]	MIC (Escherichia coli [7]) [µg/mL]	MIC [8] [µg/mL]	MIC [9] [µg/mL]	MIC (Bacillus subtilis [10]) [µg/mL]	MIC (Salmonella typhimurium [11]) [µg/mL]	MIC (Escherichia coli [12]) [µg/mL]	MIC (Staphylococcus aureus [13]) [µg/mL]	MIC (Staphylococcus aureus [14]) [µg/mL]	growth inhibition (GI) (Staphylococcus aureus [15])	MIC (Pseudomonas aeruginosa [16]) [µg/mL]	MIC (Pseudomonas aeruginosa [17]) [µg/mL]	MIC (Staphylococcus aureus [18]) [µg/mL]	Activity (Staphylococcus aureus [19])	Activity (Escherichia coli [20])
CC[C@H](C)[C@H](NC(=O)[C@H](CCCCN)NC(=O)[C@H](CCC(=O)O)NC(=O)[C@H](CCCCN)NC(=O)[C@H](CO)NC(=O)[C@H](CCCCN)NC(=O)[C@H](CCCNC(=N)N)NC(=O)[C@H](Cc1ccccc1)NC(=O)[C@H](Cc1ccccc1)NC(=O)[C@H](CC(=O)O)NC(=O)CNC(=O)[C@H](CC(C)C)NC(=O)[C@@H](N)CC(C)C)C(=O)NCC(=O)N[C@@H](CCCCN)C(=O)N[C@@H](CCC(=O)O)C(=O)N[C@@H](Cc1ccccc1)C(=O)N[C@@H](CCCCN)C(=O)N[C@@H](CCCNC(=N)N)C(=O)N[C@H](C(=O)N[C@H](C(=O)N[C@@H](CCC(N)=O)C(=O)N[C@@H](CCCNC(=N)N)C(=O)N[C@H](C(=O)N[C@@H](CCCCN)C(=O)N[C@@H](CC(=O)O)C(=O)N[C@@H](Cc1ccccc1)C(=O)N[C@@H](CC(C)C)C(=O)N[C@@H](CCCNC(=N)N)C(=O)N[C@@H](CC(N)=O)C(=O)N[C@@H](CC(C)C)C(=O)N[C@H](C(=O)N1CCC[C@H]1C(=O)N[C@@H](CCCNC(=N)N)C(=O)N[C@H](C(=O)N[C@@H](CCC(=O)O)C(=O)N[C@@H](CO)C(N)=O)[C@@H](C)O)C(C)C)[C@@H](C)CC)C(C)C)[C@@H](C)CC	> 64	inactive	> 32	32	32 (≈ 7.12 µM)	> 256	32 (≈ 7.12 µM)	> 64	16 (≈ 3.56 µM)	16	16 (≈ 3.56 µM)	16	32 (≈ 7.12 µM)	> 32	inactive	64	64 (≈ 14.2 µM)	> 32	–	–
CC[C@H](C)[C@H](NC(=O)CN)C(=O)NCC(=O)N[C@@H](C)C(=O)N[C@H](C(=O)N[C@@H](CC(C)C)C(=O)N[C@@H](CCCCN)C(=O)N[C@H](C(=O)N[C@@H](CC(C)C)C(=O)N[C@H](C(=O)N[C@H](C(=O)NCC(=O)N[C@@H](CC(C)C)C(=O)N1CCC[C@H]1C(=O)N[C@@H](C)C(=O)N[C@@H](CC(C)C)C(=O)N[C@H](C(=O)N[C@@H](CO)C(=O)N[C@@H](Cc1c[nH]c2ccccc12)C(=O)N[C@H](C(=O)N[C@@H](CCCCN)C(=O)N[C@@H](CCCNC(=N)N)C(=O)N[C@@H](CCCCN)C(=O)N[C@@H](CCCNC(=N)N)C(=O)N[C@@H](CCC(N)=O)C(=O)N[C@@H](CCC(N)=O)C(N)=O)[C@@H](C)CC)[C@@H](C)CC)[C@@H](C)O)[C@@H](C)O)C(C)C)C(C)C	–	inactive	–	–	–	–	–	–	–	–	–	–	–	–	inactive	–	–	–	–	–
CCCCCCCn1c[n+](CCCCCCC)cc1C[C@H](NC(=O)[C@@H](N)CCCNC(=N)N)C(=O)N[C@@H](CCCNC(=N)N)C(N)=O	8	Active	4	32	2	> 256	4	16	2	8	8	> 32	4	8	Active	8	8	4	Active	Active
CCCCCCCCCCn1cncc1C[C@H](NC(=O)[C@@H](N)CCCNC(=N)N)C(=O)N[C@@H](CCCNC(=N)N)C(N)=O	32	Active	8 (≈ 13.2 µM)	> 64	2 (≈ 3.3 µM)	> 256	16 (≈ 26.4 µM)	32	2 (≈ 3.3 µM)	8	32 (≈ 52.7 µM)	> 64	4 (≈ 6.59 µM)	8 (≈ 13.2 µM)	Active	16	16 (≈ 26.4 µM)	8 (≈ 13.2 µM)	–	–
CCCCCCCCCCn1c[n+](CCCCCCCCCC)cc1C[C@H](NC(=O)[C@H](CCCNC(=N)N)NC(=O)[C@@H](N)CCCNC(=N)N)C(N)=O	4	Active	8	16	8	116	16	4	8	4	8	16	8	8	Active	8	8	8	Active	Active

Source: ChEMBL document CHEMBL2424635, “Discovery of novel histidine-derived lipo-amino acids: applied in the synthesis of ultra-short antimicrobial peptidomimetics having potent antimicrobial activity, salt resistance and protease stability” (Eur J Med Chem, 2013)
